Test results published in PubChem BioAssay AID504472 (NMMLSC, 2011).
Calls of active or inactive are those of the source.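 Rule for the calls: active = compound moving the GFP-tagged Gln3 signal into the yeast nucleus, as rapamycin does; inactive = the rest.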

Test system: S. cerevisiae Gln3-GFP nuclear translocation, microscopy
Assay: Gln3-GFP nuclear translocation in yeast, SAR follow-up, yeast TOR pathway modulator project, S. cerevisiae, GFP fusion, microscopy (AID 504472)
Conditions: at 30 µM; hits give high values

Row | Compound | nuclear translocation (1=yes)
1 | CO[C@H]1C[C@@H]2CC[C@@H](C)[C@@](O)(O2)C(=O)C(=O)N2CCCC[C@H]2C(=O)O[C@H]([C@H](C)C[C@@H]2CC[C@@H](O)[C@H](OC)C2)CC(=O)[C@H](C)/C=C(\C)[C@@H](O)[C@@H](OC)C(=O)[C@H](C)C[C@H](C)/C=C/C=C/C=C/1C | 1
2 | CNc1nc(N)c([N+](=O)[O-])c(Nc2cccc(F)c2)n1 | 0 (inactive)
3 | CNc1nc(N)c([N+](=O)[O-])c(Nc2ccccc2)n1 | 0 (inactive)
4 | CNc1nc(N)c([N+](=O)[O-])c(Nc2cccc(Cl)c2)n1 | 0 (inactive)
